Experimental data as given in the NIST ThermoML archive (doi:10.1016/j.jct.2013.10.034).
Numbers after ± are expanded uncertainties.

Experiment: xn = mol fraction of the nth substance listed
Settings: 100 kPa, Liquid; for viscosity: Falling or rolling sphere viscometry; for mass density: Vibrating tube method

Structure (SMILES): CCCC[N+]1(C)CCCC1.N#CN=C=[N-] [1-butyl-1-methylpyrrolidinium dicyanamide] + O
- viscosity (323.15 K, x1 = 0.0729): 2.233 ± 0.36 mPa·s
- viscosity (323.15 K, x1 = 0.1652): 3.985 ± 0.64 mPa·s
- viscosity (323.15 K, x1 = 0.2234): 4.99 ± 0.8 mPa·s
- viscosity (323.15 K, x1 = 0.3163): 6.467 ± 1 mPa·s
- viscosity (323.15 K, x1 = 0.3548): 7.043 ± 1.1 mPa·s
- viscosity (323.15 K, x1 = 0.4198): 7.978 ± 1.3 mPa·s
- viscosity (323.15 K, x1 = 0.4762): 8.763 ± 1.4 mPa·s
- viscosity (323.15 K, x1 = 0.5239): 9.377 ± 1.5 mPa·s
- viscosity (323.15 K, x1 = 0.6244): 10.79 ± 1.7 mPa·s
- viscosity (323.15 K, x1 = 0.629): 10.85 ± 1.7 mPa·s
- viscosity (323.15 K, x1 = 0.711): 12 ± 1.9 mPa·s
- viscosity (323.15 K, x1 = 0.7413): 12.45 ± 2 mPa·s
- viscosity (323.15 K, x1 = 0.8776): 14.56 ± 2.3 mPa·s
- viscosity (323.15 K, x1 = 0.9732): 16.24 ± 2.6 mPa·s
- viscosity (323.15 K, x1 = 1): 16.72 ± 2.7 mPa·s
- mass density (323.15 K, x1 = 0.0729): 992.46 ± 0.21 kg/m3
- mass density (323.15 K, x1 = 0.1652): 996.43 ± 0.22 kg/m3
- mass density (323.15 K, x1 = 0.2234): 998.16 ± 0.23 kg/m3
- mass density (323.15 K, x1 = 0.3163): 1000.13 ± 0.27 kg/m3
- mass density (323.15 K, x1 = 0.3548): 1000.71 ± 0.29 kg/m3
- mass density (323.15 K, x1 = 0.4198): 1001.58 ± 0.34 kg/m3
- mass density (323.15 K, x1 = 0.4762): 1002.18 ± 0.39 kg/m3
- mass density (323.15 K, x1 = 0.5239): 1002.64 ± 0.44 kg/m3
- mass density (323.15 K, x1 = 0.6244): 1003.38 ± 0.57 kg/m3
- mass density (323.15 K, x1 = 0.629): 1003.41 ± 0.58 kg/m3
- mass density (323.15 K, x1 = 0.711): 1003.92 ± 0.71 kg/m3
- mass density (323.15 K, x1 = 0.7413): 1004.07 ± 0.77 kg/m3
- mass density (323.15 K, x1 = 0.8776): 1004.69 ± 1 kg/m3
- mass density (323.15 K, x1 = 0.9732): 1005.09 ± 1.3 kg/m3
- mass density (323.15 K, x1 = 1): 1005.23 ± 1.3 kg/m3
- viscosity (328.15 K, x1 = 0.0729): 2.005 ± 0.32 mPa·s
- viscosity (328.15 K, x1 = 0.1652): 3.59 ± 0.57 mPa·s
- viscosity (328.15 K, x1 = 0.2234): 4.448 ± 0.71 mPa·s
- viscosity (328.15 K, x1 = 0.3163): 5.765 ± 0.92 mPa·s
- viscosity (328.15 K, x1 = 0.3548): 6.295 ± 1 mPa·s
- viscosity (328.15 K, x1 = 0.4198): 7.116 ± 1.1 mPa·s
- viscosity (328.15 K, x1 = 0.4762): 7.819 ± 1.3 mPa·s
- viscosity (328.15 K, x1 = 0.5239): 8.369 ± 1.3 mPa·s
- viscosity (328.15 K, x1 = 0.6244): 9.629 ± 1.5 mPa·s
- viscosity (328.15 K, x1 = 0.629): 9.685 ± 1.6 mPa·s
- viscosity (328.15 K, x1 = 0.711): 10.71 ± 1.7 mPa·s
- viscosity (328.15 K, x1 = 0.7413): 11.1 ± 1.8 mPa·s
- viscosity (328.15 K, x1 = 0.8776): 12.96 ± 2.1 mPa·s
- viscosity (328.15 K, x1 = 0.9732): 14.43 ± 2.3 mPa·s
- viscosity (328.15 K, x1 = 1): 14.84 ± 2.4 mPa·s
- mass density (328.15 K, x1 = 0.0729): 989.39 ± 0.21 kg/m3
- mass density (328.15 K, x1 = 0.1652): 993.17 ± 0.22 kg/m3
- mass density (328.15 K, x1 = 0.2234): 994.93 ± 0.23 kg/m3
- mass density (328.15 K, x1 = 0.3163): 997.04 ± 0.27 kg/m3
- mass density (328.15 K, x1 = 0.3548): 997.72 ± 0.29 kg/m3
- mass density (328.15 K, x1 = 0.4198): 998.6 ± 0.34 kg/m3
- mass density (328.15 K, x1 = 0.4762): 999.26 ± 0.39 kg/m3
- mass density (328.15 K, x1 = 0.5239): 999.74 ± 0.44 kg/m3
- mass density (328.15 K, x1 = 0.6244): 1000.55 ± 0.57 kg/m3
- mass density (328.15 K, x1 = 0.629): 1000.57 ± 0.57 kg/m3
- mass density (328.15 K, x1 = 0.711): 1001.11 ± 0.71 kg/m3
- mass density (328.15 K, x1 = 0.7413): 1001.26 ± 0.76 kg/m3
- mass density (328.15 K, x1 = 0.8776): 1001.89 ± 1 kg/m3
- mass density (328.15 K, x1 = 0.9732): 1002.31 ± 1.2 kg/m3
- mass density (328.15 K, x1 = 1): 1002.48 ± 1.3 kg/m3
- viscosity (333.15 K, x1 = 0.0729): 1.807 ± 0.29 mPa·s
- viscosity (333.15 K, x1 = 0.1652): 3.196 ± 0.51 mPa·s
- viscosity (333.15 K, x1 = 0.2234): 3.98 ± 0.64 mPa·s
- viscosity (333.15 K, x1 = 0.3163): 5.16 ± 0.83 mPa·s
- viscosity (333.15 K, x1 = 0.3548): 5.643 ± 0.9 mPa·s
- viscosity (333.15 K, x1 = 0.4198): 6.375 ± 1 mPa·s
- viscosity (333.15 K, x1 = 0.4762): 7.009 ± 1.1 mPa·s
- viscosity (333.15 K, x1 = 0.5239): 7.517 ± 1.2 mPa·s
- viscosity (333.15 K, x1 = 0.6244): 8.64 ± 1.4 mPa·s
- viscosity (333.15 K, x1 = 0.629): 8.691 ± 1.4 mPa·s
- viscosity (333.15 K, x1 = 0.711): 9.609 ± 1.5 mPa·s
- viscosity (333.15 K, x1 = 0.7413): 9.96 ± 1.6 mPa·s
- viscosity (333.15 K, x1 = 0.8776): 11.62 ± 1.9 mPa·s
- viscosity (333.15 K, x1 = 0.9732): 12.92 ± 2.1 mPa·s
- viscosity (333.15 K, x1 = 1): 13.28 ± 2.1 mPa·s
